# In US5726311A, “7-disubstituted-methyl-4-oxo-3H,5H-pyrrolo[3,2-d]pyrimidine and pharmaceutical uses and compositions containing the same” (BioCryst Pharmaceuticals, Inc., priority 1995, dated 1998):
# Biological target: T1, purine nucleoside phosphorylase (PNP) (Bos taurus, UniProt P55859)
# T1 sequence (P55859 1-289): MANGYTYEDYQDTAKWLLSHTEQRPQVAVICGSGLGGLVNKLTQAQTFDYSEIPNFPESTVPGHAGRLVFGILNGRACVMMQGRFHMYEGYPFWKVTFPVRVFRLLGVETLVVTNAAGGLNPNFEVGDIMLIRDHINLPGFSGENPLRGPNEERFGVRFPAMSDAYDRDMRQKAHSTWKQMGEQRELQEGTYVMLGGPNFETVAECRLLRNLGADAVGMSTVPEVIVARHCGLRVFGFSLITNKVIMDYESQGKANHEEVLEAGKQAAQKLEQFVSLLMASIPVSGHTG
# Test: Purine nucleoside phosphorylase (PNP) radiochemical enzyme assay, [14C]-hypoxanthine formation from [14C]-inosine
# [1] = IC50 (nM), table of Examples 36-42, phosphate concentration not printed in table (Ex. 37 and 38 values agree with 1 mM phosphate in text)
# [2] = IC50 (PNP inhibition), 1 mM phosphate, calf spleen PNP
# [3] = IC50 (PNP inhibition), 50 mM phosphate, calf spleen PNP
Compound,IC50 [1] [nM],IC50 [2] [nM],IC50 [3] [nM],"enzyme inhibition activity (IC50), in words (phosphate concentration not stated)"
"Nc1nc(O)c2[nH]c(N)c(Cc3cccs3)c2n1 [2,6-diamino-3,5-dihydro-7-(2-thienylmethyl)-4H-pyrollo-[3,2-d]pyrimidine-4-one, reference compound]",160,–,–,–
N#CCC(c1cc(Cl)cc(Cl)c1Cl)c1c[nH]c2c(=O)[nH]c(N)nc12 (stereo not shown) [Example 8A],–,640,10000,–
"Nc1nc(O)c2[nH]cc(C(CC(=O)O)c3ccccc3)c2n1 (stereo not shown) [Example 15, 3-(2-amino-4-oxo-3H,5H-pyrrolo[3,2-d]pyrimidin-7-yl)-3-phenylpropanoic acid]",–,12,190,–
"COC(=O)CC(c1ccccc1)c1c[nH]c2c(=O)[nH]c(N)nc12 (stereo not shown) [Example 19, 3-(2-amino-4-oxo-3H,5H-pyrrolo[3,2-d]pyrimidin-7-yl)-3-phenylpropanoic acid, methyl ester]",–,–,–,Significant activity
N#CCC(c1cccc(Cl)c1)c1c[nH]c2c(=O)[nH]cnc12 (stereo not shown) [Example 40],10,–,–,–
